Measured values taken from PubChem BioAssay AID1963870 (Molecular Pharmacology Branch, DTP, NCI, 2024).

Tested on: 292921-168-R-J2-PDC KRAS tumor spheroid viability
Test: Anticancer human tumor 292921-168-R-J2-PDC patient-derived pancreatic carcinoma cell line growth inhibition [KRAS2]
Conditions: spheroids with HUVEC and MSC; for IC50: curve of first compound; for viability, T/C: stronger effect = lower value
Outline: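 KRAS-mutant tumor cells were grown as spheroids with HUVEC endothelial cells and human MSCs as stroma. Targeted agents were tested alone and with KRAS pathway inhibitors. Doses started at or near clinical Cmax, or 10 microM, descending half-log.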

[1] = second compound 0.1 µM, first compound 0.0316 µM
[2] = second compound 0.1 µM, first compound 0.1 µM
[3] = second compound 0.1 µM, first compound 0.316 µM
[4] = second compound 0.1 µM, first compound 1 µM
[5] = second compound 0.1 µM, first compound 3.16 µM
[6] = second compound 0.1 µM, first compound 10 µM
[7] = second compound 0.316 µM, first compound 0.0316 µM
[8] = second compound 0.316 µM, first compound 0.1 µM
[9] = second compound 0.316 µM, first compound 0.316 µM
[10] = second compound 0.316 µM, first compound 1 µM
[11] = second compound 0.316 µM, first compound 3.16 µM
[12] = second compound 0.316 µM, first compound 10 µM
[13] = second compound 1 µM, first compound 0.0316 µM
[14] = second compound 1 µM, first compound 0.1 µM
[15] = second compound 1 µM, first compound 0.316 µM
[16] = second compound 1 µM, first compound 1 µM
[17] = second compound 1 µM, first compound 3.16 µM
[18] = second compound 1 µM, first compound 10 µM
[19] = second compound 3.16 µM, first compound 0.0316 µM
[20] = second compound 3.16 µM, first compound 0.1 µM
[21] = second compound 3.16 µM, first compound 0.316 µM
[22] = second compound 3.16 µM, first compound 1 µM
[23] = second compound 3.16 µM, first compound 3.16 µM
[24] = second compound 3.16 µM, first compound 10 µM
[25] = second compound 10 µM, first compound 0.0316 µM
[26] = second compound 10 µM, first compound 0.1 µM
[27] = second compound 10 µM, first compound 0.316 µM
[28] = second compound 10 µM, first compound 1 µM
[29] = second compound 10 µM, first compound 3.16 µM
[30] = second compound 10 µM, first compound 10 µM
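Also: drug exposure lasted seven days after spheroids formed for three days.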
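For viability, T/C in this document: percent of DMSO vehicle control viability which is 100%.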

Structure (SMILES)	IC50 (second compound 0.1 µM) [nM]	IC50 (second compound 0.316 µM) [nM]	IC50 (second compound 1 µM) [nM]	IC50 (second compound 3.16 µM) [nM]	IC50 (second compound 10 µM) [nM]	viability, T/C [1] [%]	viability, T/C [2] [%]	viability, T/C [3] [%]	viability, T/C [4] [%]	viability, T/C [5] [%]	viability, T/C [6] [%]	viability, T/C [7] [%]	viability, T/C [8] [%]	viability, T/C [9] [%]	viability, T/C [10] [%]	viability, T/C [11] [%]	viability, T/C [12] [%]	viability, T/C [13] [%]	viability, T/C [14] [%]	viability, T/C [15] [%]	also measured
CC(C)NCC(C(=O)N1CCN(c2ncnc3c2C(C)CC3O)CC1)c1ccc(Cl)cc1 (stereo not given) + C=CC(=O)N1CCN(c2nc(=O)n(-c3c(C)ccnc3C(C)C)c3nc(-c4c(O)cccc4F)c(F)cc23)C(C)C1	> 10000	> 10000	6050	1640	< 31.6	95.3	91.2	88.1	86.3	79.4	50.9	96.3	96.2	85.7	81.1	67.4	52.7	92.7	82.3	76.1	viability, T/C [16]: 75.8%; viability, T/C [17]: 63.8%; viability, T/C [18]: 39.8%; viability, T/C [19]: 51.9%; viability, T/C [20]: 63.9%; viability, T/C [21]: 58.7%; viability, T/C [22]: 53.1%; viability, T/C [23]: 44.4%; viability, T/C [24]: 25.9%; viability, T/C [25]: 18.6%; viability, T/C [26]: 22.1%; viability, T/C [27]: 17.8%; viability, T/C [28]: 15.3%; viability, T/C [29]: 18.3%; viability, T/C [30]: 11.8%
COc1cc(Nc2ncc3c(n2)-c2ccc(Cl)cc2C(c2c(F)cccc2OC)=NC3)ccc1C(=O)O + CC1OCC2(CCN(c3cnc(Sc4ccnc(N)c4Cl)c(N)n3)CC2)C1N	< 31.6	< 31.6	< 31.6	< 31.6	< 31.6	22.8	21.9	22.8	22.3	17.3	14.1	21.1	18.9	22.8	19.9	16.8	10.6	18.3	15.5	18.5	viability, T/C [16]: 15.5%; viability, T/C [17]: 13.6%; viability, T/C [18]: 10.8%; viability, T/C [19]: 18.1%; viability, T/C [20]: 16.4%; viability, T/C [21]: 16.9%; viability, T/C [22]: 14.9%; viability, T/C [23]: 12.8%; viability, T/C [24]: 10.2%; viability, T/C [25]: 16%; viability, T/C [26]: 16.7%; viability, T/C [27]: 16.1%; viability, T/C [28]: 15.7%; viability, T/C [29]: 14%; viability, T/C [30]: 10.3%
